# From patent US20230020036A1, “TREATMENT OF EPILEPTIC CONDITIONS WITH GABAA RECEPTOR MODULATORS” (NEUROCYCLE THERAPEUTICS, INC., priority 2019, published 2023)
# Where “and” joins values, the source holds several entries; their conditions need not be identical. Equal entries are not always repeated. Entries after “also recorded” stand apart in the source; their conditions may differ.
# Test system: Scn1a+/- heterozygous knockout mice ([129xB]F1.Scn1a+/-), heat-induced seizures
# Assay: Hyperthermia-induced seizure study in Scn1a+/- heterozygous knockout mice
# Assay type: in vivo, mouse
# Parameters: Temp Change: unit not given here
# Settings: for amount of seizures relative to administration of vehicle: Table 10 summary; for performance compared with the clobazam positive control: clobazam 10 mg/kg; for efficacy at preventing heat-induced seizures: summary of the seizure study, FIG. 13
# From the text: Reason for selection of species: The Scn1a^+/− knockout mouse ([129xB]F1. Scn1a^+/−) is a model subject of DS with a high translational value.
# Between P14 and 16, Scn1a^+/− heterozygous knockout mice are randomly assigned to treatment groups (n=7 males, 7 females/treatment group). The Scn1a^+/− knockout mouse model was chosen because it is an art accepted animal model for epileptic conditions, including for Dravet Syndrome. Treatments are GABAA receptor modulator 1 (“Compound 1” as a phosphate salt at 0.1, 0.3, 1.0 mg/kg), GABAA receptor modulator 2 (“Compound 2” at 3, 10, 30, 100 mg/kg), vehicle, or Clobazam (“CBZ”) (10 mg/kg; positive control).
# The GABAA receptor modulators were administered intraperitoneally (i.p.) using a 0.5 or 1-ml plastic syringe fitted with a 27 or 30 gauge 0.5″-long beveled needle.
# Animals received 10 mL of formulation per kg of body weight as measured on the day of experiment.
# In order to verify the dose concentration, mice were dosed with a test article or control and placed into individual housing cages. A temperature probe was gently inserted into the mouse's rectum and secured by taping the probe's wire to the mouse's tail with the tag end on the mouse's dorsal side. For each group, the insertion of the probe was as follows: • a. For mice administered CBZ, five (5) mins passed before insertion of the probe in order to allow 20-30 min pretreatment time when the state of hyperthermia reached. • b. For mice administered Compound 1, thirty-five (35) mins passed before insertion of the probe in order to allow 50-60 min pretreatment time when the state of hyperthermia is reached. • c. For mice administered […], five (5) mins passed before insertion of the probe in order to allow 20-30 min pretreatment time when the state of hyperthermia reached.
# Each mouse was allowed to acclimate to the temperature probe for five (5) minutes before recording the baseline temperature. FIGS. 1-3 depict the starting temperatures of the female mice, the male mice, and the average starting temperatures of all mice prior to inducing the heat-induced seizures.
# FIGS. 4-6 depict the final core body temperature of the female mice, the male mice, and the average final core body temperature of all mice after heating. FIGS. 7-9 illustrate the total temperature change for the female mice, the male mice, and average of all mice; while FIGS. 10-12 depict the average temperature change per minute for the female mice, the male mice, and average of all mice. The mouse's body temperature was maintained at 42.5° C. for 3 mins. If no seizure occurred, the mouse was considered seizure-free.
# [1] = Clobazam 10 mg/kg i.p., 30 minute pretreatment, individual animals, female mice
# [2] = Clobazam 10 mg/kg i.p., 30 minute pretreatment, individual animals, male mice
# [3] = 0.1 mg/kg i.p., 60 minute pretreatment, individual animals, female mice
# [4] = 0.1 mg/kg i.p., 60 minute pretreatment, individual animals, male mice
# [5] = 0.3 mg/kg i.p., 60 minute pretreatment, individual animals, female mice
# [6] = 0.3 mg/kg i.p., 60 minute pretreatment, individual animals, male mice
# [7] = 3 mg/kg i.p., 30 minute pretreatment, individual animals, female mice
# [8] = 3 mg/kg i.p., 30 minute pretreatment, individual animals, male mice
# [9] = Compound 2 30 mg/kg, 30 minute pretreatment, individual animals, female mice
# [10] = Compound 2 30 mg/kg, 30 minute pretreatment, individual animals, male mice
# [11] = Compound 2 100 mg/kg, 30 minute pretreatment, individual animals, female mice
# [12] = Compound 2 100 mg/kg, 30 minute pretreatment, individual animals, male mice
structure (smiles),measurement,setting,value
"CN1C(=O)CC(=O)N(c2ccccc2)c2cc(Cl)ccc21 [Clobazam, reference compound]",Total With No Seizure,"Clobazam 10 mg/kg i.p., 30 minute pretreatment",38%
same,End Temp,[1],42.3 °C and 42 °C and 42.2 °C and 42.7 °C (2×) and 42.6 °C (4×) and 42.5 °C (2×) and 42.9 °C
same,Observations,[1],"Tonic-clonic, squeek; also recorded: seizure free, 3 min hold; also recorded: Tonic-clonic on the onset; also recorded: Tonic-clonic, HLE"
same,End Temp,[2],41.9 °C and 42.6 °C (2×) and 42.5 °C (3×) and 42.9 °C and 42.8 °C and 41.8 °C and 42 °C and 41.7 °C and 42.1 °C
same,Observations,[2],"seizure free, 3 min hold; also recorded: Tonic-clonic seizure; also recorded: Tonic-clonic seizure,; also recorded: Tonic-clonic, squeek; also recorded: Tonic-clonic on the onset"
same,End Temperature,"summary, 10 mg/kg (n = 24)",42.42 °C
same,Seizure free %,"summary, 10 mg/kg (n = 24)",38%
same,Temp Change,"summary, 10 mg/kg (n = 24)",7.60
same,Temp Change/min,"summary, 10 mg/kg (n = 24)",0.53
CC(C)(O)c1cnn2c(-c3ccc(F)c(-c4c(F)cccc4C#N)c3)cnc2n1 [Compound 1],Total With No Seizure,"0.1 mg/kg i.p., 60 minute pretreatment",6%
same,End Temp,[3],41.9 °C and 41.8 °C and 41.6 °C and 42 °C and 41.7 °C and 42.8 °C and 41.4 °C and 41.2 °C
same,Observations,[3],"Tonic-clonic, squeek; also recorded: Seizure free, 3 min hold"
same,End Temp,[4],42.6 °C and 41.8 °C and 40.8 °C and 42 °C and 42.1 °C and 41.5 °C and 42.2 °C and 41.6 °C
same,Observations,[4],"Tonic-clonic, seizure; also recorded: Tonic-clonic, squeek"
same,Total With No Seizure,"0.3 mg/kg i.p., 60 minute pretreatment",33%
same,End Temp,[5],41.7 °C and 41.4 °C and 42.3 °C (2×) and 42.5 °C and 42.8 °C and 42.1 °C and 42.2 °C and 42.7 °C
same,Observations,[5],"Tobic-clonic, squeek, HLE; also recorded: Seizure free, 3 min hold; also recorded: tonic-clonic, squeek, HLE"
same,End Temp,[6],41.4 °C and 42.4 °C (2×) and 42.8 °C and 41.9 °C and 42.2 °C and 42.6 °C (2×) and 43 °C
same,Observations,[6],"Tonic,-clonic, squeek; also recorded: Tonic-clonic, squeek; also recorded: Seizure free, 3 min hold"
same,Total With No Seizure,"1.0 mg/kg i.p., 60 minute pretreatment",36%
same,Observations,"1.0 mg/kg i.p., 60 minute pretreatment, individual animals","Tonic-clonic seizure,; also recorded: seizure free, 3 min hold; also recorded: Tonic-clonic seizure; also recorded: Tonic-clonic, Squeek"
same,End Temp,"1.0 mg/kg i.p., 60 minute pretreatment, individual animals, female mice",42.2 °C (2×) and 42.8 °C (2×) and 42.4 °C and 42.5 °C (3×) and 42.3 °C and 42.9 °C and 42.1 °C
same,End Temp,"1.0 mg/kg i.p., 60 minute pretreatment, individual animals, male mice",41.9 °C and 42.5 °C (2×) and 42.9 °C and 42.3 °C and 42.2 °C and 42.8 °C (2×) and 41.5 °C and 41.3 °C and 42.6 °C
same,amount of seizures relative to administration of vehicle,,reduced the amount of seizures
same,performance compared with the clobazam positive control,,performed at least as well as the clobazam positive control
same,efficacy at preventing heat-induced seizures,,effective at preventing heat-induced seizures
same,End Temperature,"summary, 0.1 mg/kg (n = 16)",41.81 °C
same,Seizure free %,"summary, 0.1 mg/kg (n = 16)",6%
same,Temp Change,"summary, 0.1 mg/kg (n = 16)",6.66
same,Temp Change/min,"summary, 0.1 mg/kg (n = 16)",0.52
same,End Temperature,"summary, 0.3 mg/kg (n = 18)",42.29 °C
same,Seizure free %,"summary, 0.3 mg/kg (n = 18)",33%
same,Temp Change,"summary, 0.3 mg/kg (n = 18)",7.15
same,Temp Change/min,"summary, 0.3 mg/kg (n = 18)",0.48
same,End Temperature,"summary, 1.0 mg/kg (n = 22)",42.39 °C
same,Seizure free %,"summary, 1.0 mg/kg (n = 22)",36%
same,Temp Change,"summary, 1.0 mg/kg (n = 22)",7.05
same,Temp Change/min,"summary, 1.0 mg/kg (n = 22)",0.46
C#Cc1ccc2c(c1)C(c1ccccn1)=NCc1c(-c3nc(CC)no3)ncn1-2 [Compound 2],Total With No Seizure,"3 mg/kg i.p., 30 minute pretreatment",7%
same,End Temp,[7],42.6 °C and 41.8 °C and 41.7 °C (2×) and 42.2 °C and 42.4 °C and 41.4 °C
same,Observations,[7],"Seizure free, 3 min hold; also recorded: Tonic-clonic, squeek"
same,End Temp,[8],41.3 °C (2×) and 41.7 °C and 42.1 °C and 41.8 °C and 42 °C and 42.5 °C
same,Observations,[8],"Tonic-clonic, squeek; also recorded: Tonic-clonic on the onset"
same,prevention of seizures,"100 mg/kg dose, n=8",completely preventing seizures in each animal
same,dose dependence of seizure prevention,"3, 10, 30, 100 mg/kg",prevented seizures in a dose-dependent fashion
same,Total With No Seizure,"Compound 2 10 mg/kg i.p., 30 minute pretreatment",50%
same,Observations,"Compound 2 10 mg/kg i.p., 30 minute pretreatment, individual animals","Tonic-clonic, squeek"
same,End Temp,"Compound 2 10 mg/kg i.p., 30 minute pretreatment, individual animals, female mice",42.7 °C (2×) and 42.8 °C (2×) and 42.6 °C and 42.1 °C and 42.5 °C
same,End Temp,"Compound 2 10 mg/kg i.p., 30 minute pretreatment, individual animals, male mice",42.5 °C (3×) and 42.8 °C and 42 °C and 40 °C and 42.7 °C
same,Total With No Seizure,"Compound 2 30 mg/kg, 30 minute pretreatment",73%
same,End Temp,[9],42.5 °C and 41.5 °C and 42.8 °C (2×) and 42.7 °C (3×) and 42.6 °C
same,Observations,[9],"seizure free, 3 min hold; also recorded: Tonic-clonic seizure"
same,Temp Change,[9],9.1 and 5.3 and 6.3 and 6.2 and 7.9 and 7.2 and 6.6 and 7.4
same,Temp Change/min,[9],0.51 and 0.48 (2×) and 0.41 and 0.46 and 0.55 and 0.39 and 0.35
same,End Temp,[10],42.5 °C and 42.8 °C and 42.6 °C and 43 °C and 42.7 °C (2×) and 41.6 °C
same,Observations,[10],"Tonic-clonic, squeek; also recorded: Seizure free, 3 min hold"
same,Temp Change,[10],7.3 and 6.8 and 7.8 and 7.5 (2×) and 9.6 and 7
same,Temp Change/min,[10],0.66 and 0.49 and 0.41 and 0.54 and 0.53 and 0.50 and 0.63
same,Total With No Seizure,"Compound 2 100 mg/kg, 30 minute pretreatment",100%
same,End Temp,[11],42.9 °C and 42.7 °C (2×) and 42.5 °C
same,Observations,[11],"Seizure free, 3 min hold"
same,Temp Change,[11],8.2 and 7.4 and 7.7 and 8.5
same,Temp Change/min,[11],0.59 and 0.53 and 0.33 and 0.50
same,End Temp,[12],42.6 °C (2×) and 42.7 °C and 42.5 °C
same,Observations,[12],"Seizure free, 3 min hold"
same,Temp Change,[12],7.4 and 7.2 and 9.7 and 7.7
same,Temp Change/min,[12],0.31 and 0.36 and 0.54 and 0.29
same,amount of seizures relative to administration of vehicle,,reduced the amount of seizures
same,performance compared with the clobazam positive control,,performed at least as well as the clobazam positive control
same,efficacy at preventing heat-induced seizures,,effective at preventing heat-induced seizures
same,End Temperature,"summary, 3 mg/kg (n = 14)",41.89 °C
same,Seizure free %,"summary, 3 mg/kg (n = 14)",7%
same,Temp Change,"summary, 3 mg/kg (n = 14)",6.61
same,Temp Change/min,"summary, 3 mg/kg (n = 14)",0.45
same,End Temperature,"summary, 10 mg/kg (n = 14)",42.37 °C
same,Seizure free %,"summary, 10 mg/kg (n = 14)",50%
same,Temp Change,"summary, 10 mg/kg (n = 14)",7.09
same,Temp Change/min,"summary, 10 mg/kg (n = 14)",0.47
same,End Temperature,"summary, 30 mg/kg (n = 15)",42.55 °C
same,Seizure free %,"summary, 30 mg/kg (n = 15)",73%
same,Temp Change,"summary, 30 mg/kg (n = 15)",7.30
same,Temp Change/min,"summary, 30 mg/kg (n = 15)",0.49
same,End Temperature,"summary, 100 mg/kg (n = 8)",42.60 °C
same,Seizure free %,"summary, 100 mg/kg (n = 8)",100%
same,Temp Change,"summary, 100 mg/kg (n = 8)",8.00
same,Temp Change/min,"summary, 100 mg/kg (n = 8)",0.37
